Patent US12714722B2, “Cancer combination therapies utilizing a nicotinamide phosphoribosyltransferase inhibitor in combination with a nicotinamide adenine dinucleotide salvage pathway precursor” (Fred Hutchinson Cancer Center, priority 2019, dated 2026)
“Also recorded” adds a separate entry of the source.

Key:
CB660 = assay: Cell viability (Cell-Titer-Glo), FK866 with or without NMN, in NSC-CB660; format: cell-based, human; parameters: key: +: indicates similar viability compared to parental cells in ″No drug control″; −: indicates significantly diminished viability (as determined by Student's t-test); conditions: CB660 cells; FK-866 alone or with NMN
GSC 0131 = assay: Cell viability, FK866 with or without NMN, in GSC 0131; format: cell-based, human; parameters: key to viability compared to No drug control: +: indicates similar viability compared to parental cells in ″No drug control″; −: indicates significantly diminished viability (as determined by Student's t-test)
GSC 0131 NMRK1 KO = assay: Cell viability, FK866 with or without NMN, in GSC 0131 with NMRK1 knockout; format: cell-based, human; parameters: key to viability compared to No drug control: +: indicates similar viability compared to parental cells in ″No drug control″; −: indicates significantly diminished viability (as determined by Student's t-test)
Description: (§1) Methods. Cell culture. NSC and GSC lines were grown in NeuroCult NS-A basal medium (StemCell Technologies) supplemented with B27 (Thermo Fisher), N2 (2× stock in Advanced DMEM/F-12 (Fisher) with 25 μg/mL insulin (Sigma), 100 μg/mL apo-Transferrin (Sigma), 6 ng/mL progesterone (Sigma), 16 μg/mL putrescine (Sigma), 30 nM sodium selenite (Sigma), and 50 μg/mL bovine serum albumin (Sigma), and EGF and FGF-2 (20 ng/mL each) (Peprotech) on laminin (Sigma or Trevigen) coated polystyrene plates and passaged according to previously published protocols (Pollard et al., Cell Stem Cell. 2009; 4(6):568-80). Cells were detached from their plates using Accutase (Thermo Fisher). 293T (ATCC) cells were grown in 10% FBS/DMEM (Invitrogen).
(§2) In addition, knockout of NMRK1 in GSC 0131 cells should replicate the effect of FK866 seen in GSC 0827 cells.
NMRK1 knockout. Using nucleofection (4D-Nucleofector; Amaxa) in combination with Cas9:sgRNA complexes (Synthego). Using the Synthego prediction software, 3 synthetic sgRNA guides were generated to give indel formation within the NMRK1 transcript.
Synthetic guides were mixed with recombinant cas9 and nucleofected using an Amaxa 96-well nucleofection system. Indel formation was highest with guides 1 and 2, and lowest with guide 3. Combining guides 1 and 2 yielded >90% indel formation. […]

GSC 0827 = assay: Cell viability, FK866 with or without NMN, in GSC 0827 (NMRK1 low); format: cell-based, human; parameters: key to viability compared to No drug control: +: indicates similar viability compared to parental cells in ″No drug control″; −: indicates significantly diminished viability (as determined by Student's t-test); conditions: for rescue of FK866-treated cells with NMN: GSC-0827 cells, in the presence of FK866
Description: as §1
Metabolic inhibitors screen protocol and data analysis. 230 metabolic inhibitors were screened in GSC lines (0131 and 827) and NSC CB660 cell line grown in 96-well optical bottom plates. After 24 hours, inhibitors were diluted in cell media and added to plated cells. Inhibitor concentration was based on IC 50 for the target enzymes, with 1× being the IC50 0.25× being the lower concentration and 5× being the higher concentration. Each concentration was tested in triplicate. After 48 hours, cell viability was measured via Cell-Titer-Glo. A z-score was established for each compound concentration, based on Untreated and Puromycin treated cells. Positive candidates were defined as compounds with a z-score less than that of CB660 cells. Positive candidates were rescreened to verify results.
NMN and NR Complementation studies. To verify if selectivity of NAMPT inhibition relied on downregulation of salvaging pathways, 827 cells were tested on cell viability in the presence of FK866 and the addition of NMN.

GSC 0827 + NMRK1 = assay: Cell viability, FK866 with or without NMN, in GSC 0827 ectopically expressing NMRK1; format: cell-based, human; parameters: key to viability compared to No drug control: +: indicates similar viability compared to parental cells in ″No drug control″; −: indicates significantly diminished viability (as determined by Student's t-test)
Description: as §1, §2
Cloning of NMRK1 ORF and NMRK1 complementation studies. […] This could be used as negative control for transfection purposes.
NMRK1 was then synthesized as a g-block based on HEK293T genomic DNA sequence:
Insertion of the purified product into vector was accomplished via Gibson assembly using NEB HiFi DNA Assembly Master Mix Kit with BamHI pre-cut pLX304 vector for expression in GBM cell lines.
Once cloned into the pLX304 backbone, the NMRK1 expressing plasmid was prepared for nucleofection and introduced into GBM 0827 cell lines. […]

[1] = tested on: GSCs (0131 and 0827) and control hNPC-CB660 cells; assay: Metabolic inhibitor library screen and retest, GSCs versus control neural stem cells; format: cell-based, human; conditions: 48 hrs; Cell titerglo assay; n=3
Description: Example 1. To Identify New Metabolic Vulnerabilities in Human GSCs, a Chemical Library screen was performed using […] inhibitors of metabolic enzymes in two GSCs (0131 and 0827) and control hNPC-CB660 cells. […] To further explore this phenotype, an NAD salvage substrate, NMN was used, to bypass the requirement for NAMPT and rescue cytotoxicity. NMN is a substrate for the ectoenzyme CD73 (Ratajczak J et al., Nature communications. 2016; 7:13103), which generates NR, which is transported intracellular by equilibrative nucleoside transporters. (Nikiforov et al., J Biol Chem. 2011; 286(24):21767-78.) Intracellular NR is phosphorylated by NMRK in a NAMPT-independent NAD salvage pathway.
Methods. Cell culture. […]
Metabolic inhibitors screen protocol and data analysis. […] After 48 hours, cell viability was measured via Cell-Titer-Glo. […]

[2] = cited from earlier work

Row | SMILES | viability compared to No drug control (CB660) | viability compared to No drug control (GSC 0131; GSC 0131 cells, FK-866 alone or with NMN) | viability compared to No drug control (GSC 0131 NMRK1 KO; GSC 0131 NMRK1 KO cells, FK-866 alone or with NMN) | viability compared to No drug control (GSC 0827; GSC 0827 cells, FK-866 alone or with NMN) | rescue of FK866-treated cells with NMN (GSC 0827) | viability compared to No drug control (GSC 0827 + NMRK1; GSC 0827 + NMRK1 cells, FK-866 alone or with NMN) | selectivity of cytotoxicity for GSCs over neural stem cells [1] | toxicity in clinical trials [2] | rescue of FK866-treated cells with NMN (GSC 0131; GSC-0131 cells, in the presence of FK866) | rescue of FK866-treated cells with NMN (GSC 0131 NMRK1 KO; GSC-0131 cells with NMRK1 knockout, in the presence of FK866) | rescue of FK866-treated cells with NMN (GSC 0827 + NMRK1; GSC-0827 cells with ectopic NMRK1 expression, in the presence of FK866)
1 | O=C(/C=C/c1cccnc1)NCCCCC1CCN(C(=O)c2ccccc2)CC1 [FK866, (E)-N-[4-(1-benzoyl-4-yl)-butyl]-3-(pyridin-3-yl) acrylamide] | + | − | − | − | remained exquisitely sensitive; also recorded: cannot be overcome | − | GSC-selective cytotoxicity; also recorded: GSC and transformation specificity | dose-limiting toxicities |  |  | 
2 | NC(=O)c1ccc[n+]([C@@H]2O[C@H](COP(=O)([O-])O)[C@@H](O)[C@H]2O)c1 [NMN, nicotinamide mononucleotide] |  |  |  |  | not |  |  |  | could be rescued; also recorded: sufficient to rescue; also recorded: can be complemented | rescue was prevented | sufficient to rescue; also recorded: demonstrated rescue; also recorded: allows utilization
